Converted amounts (≈) assume the structure as drawn.
Experiments:
[1] = Octanol-buffer partition coefficient, log D of the compound at pH 7.4 by shake-flask method
[2] = Dissociation constant, pKa of the compound by spectrophotometric titration; format: physicochemical
[3] = Lipophilicity, log P of the compound in octanol
Albumin [4] = target: T1, Albumin (Homo sapiens, UniProt P02768); conditions: isolated protein
Description: Binding affinity to fatty acid-free human serum albumin by equilibrium dialysis

Albumin [5] = target: T1, Albumin; conditions: isolated protein; remark: listed apart in the source
Description: Binding affinity to fatty acid-containing human serum albumin by equilibrium dialysis

physchem = conditions: phosphate buffer, pH 7.4
Description: Aqueous solubility of the compound in phosphate buffer solution of pH 7.4 after 24 hrs by LC-UV analysis

[6] = target: T2, human serum albumin site 1 (Homo sapiens, UniProt P02768); test: in vitro; conditions: pH 7.4, probe warfarin
T2 sequence (P02768 whole entry): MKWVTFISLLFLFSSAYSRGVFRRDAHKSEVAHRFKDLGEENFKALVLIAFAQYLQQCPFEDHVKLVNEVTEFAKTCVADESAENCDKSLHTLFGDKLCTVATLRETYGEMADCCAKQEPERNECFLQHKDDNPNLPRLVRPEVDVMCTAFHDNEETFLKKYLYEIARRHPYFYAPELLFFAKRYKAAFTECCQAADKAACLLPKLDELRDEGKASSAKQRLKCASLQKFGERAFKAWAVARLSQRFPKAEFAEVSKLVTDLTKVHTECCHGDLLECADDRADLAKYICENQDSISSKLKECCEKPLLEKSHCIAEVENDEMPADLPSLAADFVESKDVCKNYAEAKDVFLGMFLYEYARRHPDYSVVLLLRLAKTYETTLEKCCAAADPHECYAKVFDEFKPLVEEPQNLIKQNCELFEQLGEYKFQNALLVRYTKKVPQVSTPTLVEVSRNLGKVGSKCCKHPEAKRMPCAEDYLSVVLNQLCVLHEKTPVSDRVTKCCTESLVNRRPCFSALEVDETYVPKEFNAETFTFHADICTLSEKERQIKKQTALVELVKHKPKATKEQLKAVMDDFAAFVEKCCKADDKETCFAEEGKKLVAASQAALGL
Description: Displacement of radiolabeled warfarin from human serum albumin site 1 in phosphate buffer at pH 7.4 at 100 uM by fluorescence spectroscopy

[7] = target: T3, human serum albumin site 2 (Homo sapiens, UniProt P02768); test: in vitro; conditions: pH 7.4, probe dansylsarcosine
T3 sequence (P02768 whole entry): as above
Description: Displacement of radiolabeled dansylsarcosine from human serum albumin site 2 in phosphate buffer at pH 7.4 at 100 uM by fluorescence spectroscopy

[8] = target: T2, human serum albumin site 1; test: in vitro; conditions: fatty acid-free human serum albumin, pH 7.4, probe warfarin
Description: Displacement of radiolabeled warfarin from fatty acid-free human serum albumin site 1 in phosphate buffer at pH 7.4 at 12 uM by fluorescence spectroscopy

[9] = target: T3, human serum albumin site 2; test: in vitro; conditions: fatty acid-free human serum albumin, pH 7.4, probe dansylsarcosine
Description: Displacement of radiolabeled dansylsarcosine from fatty acid-free human serum albumin site 2 in phosphate buffer at pH 7.4 at 12 uM by fluorescence spectroscopy

[10] = target: T2, human serum albumin site 1; test: in vitro; conditions: fatty acid containing human serum albumin, pH 7.4, probe warfarin
Description: Displacement of radiolabeled warfarin from fatty acid containing human serum albumin site 1 in phosphate buffer at pH 7.4 at 12 uM by fluorescence spectroscopy

[11] = target: T3, human serum albumin site 2; test: in vitro; conditions: fatty acid containing human serum albumin, pH 7.4, probe dansylsarcosine
Description: Displacement of radiolabeled dansylsarcosine from fatty acid containing human serum albumin site 2 in phosphate buffer at pH 7.4 at 12 uM by fluorescence spectroscopy

Albumin [12] = target: T1, Albumin; test: Binding affinity to human serum albumin by equilibrium dialysis; format: ADME; conditions: isolated protein
[13] = target: T2, human serum albumin site 1; test: Displacement of […] warfarin from human serum albumin site 1 in phosphate buffer at pH 7.4 at 4 uM by fluorescence spectroscopy; conditions: pH 7.4, probe warfarin, read-out: Activity
[14] = target: T3, human serum albumin site 2; test: Displacement of […] dansylsarcosine from human serum albumin site 2 in phosphate buffer at pH 7.4 at 4 uM by fluorescence spectroscopy; conditions: pH 7.4, probe dansylsarcosine, read-out: Activity

T1 sequence (P02768 whole entry): as above

Structure (SMILES) | inhibition at 12 µM [8] [%] | inhibition at 12 µM [9] [%] | inhibition at 12 µM [10] [%] | inhibition at 12 µM [11] [%] | further results
O=C(O)C[C@@H]1c2ccccc2C[C@H]1NC(=O)c1cc2cc(F)ccc2[nH]1 |  |  |  |  | logD [1]: 1.26; pKa [2]: 3.95; logP [3]: 4.71; log Ks (Albumin [4]): 5.97; log Ks (Albumin [5]): 6.11; solubility at 24 h (physchem): 1930 µM (≈ 680 µg/mL)
O=C(O)CCC[C@@H]1c2ccccc2C[C@H]1NC(=O)c1cc2cc(F)ccc2[nH]1 |  |  |  |  | logD [1]: 1.95; pKa [2]: 4.24; logP [3]: 5.11; log Ks (Albumin [4]): 5.41; log Ks (Albumin [5]): 5.41; solubility at 24 h (physchem): 86 µM (≈ 32.7 µg/mL)
CC(=O)Nc1nc(C)c(-c2cnc(F)c(NS(=O)(=O)c3sc(C)nc3C)c2)s1 |  |  |  |  | pKa [2]: 4.71; log Ks (Albumin [4]): 5.88; log Ks (Albumin [5]): 5.62; solubility at 24 h (physchem): > 1700 µM; inhibition at 100 µM [6]: 6%; inhibition at 100 µM [7]: 7%
CC(=O)CC(c1ccc([N+](=O)[O-])cc1)c1c(O)c2ccccc2oc1=O (stereo not given) [ACENOCOUMAROL] | 49.8 | 12.5 | 54.6 | 39 | 
NS(=O)(=O)c1cc2c(cc1Cl)N=CNS2(=O)=O [CHLOROTHIAZIDE] | 28.9 | 8 | 16 | 18.8 | 
CCCNC(=O)NS(=O)(=O)c1ccc(Cl)cc1 [CHLORPROPAMIDE] | 19.2 | 28.5 | 18.5 | 26 | 
O=C1CN=C(c2ccccc2Cl)c2cc([N+](=O)[O-])ccc2N1 [CLONAZEPAM] | 0 | 16.2 | 3.8 | 19.5 | 
Cc1onc(-c2ccccc2Cl)c1C(=O)N[C@@H]1C(=O)N2[C@@H]1SC(C)(C)[C@@H]2C(=O)O [CLOXACILLIN] | 0 | 24.1 | 5.7 | 18.1 | 
CN(C)c1cccc2c(S(=O)(=O)N(C)CC(=O)O)cccc12 [DANSYLSARCOSINE] |  |  |  |  | log Ks (Albumin [12]): 5.39
O=c1oc2ccccc2c(O)c1Cc1c(O)c2ccccc2oc1=O [DICUMAROL] | 86.4 | 88.8 | 10.5 | 19.8 | 
O=C(O)CCC(=O)c1ccc(-c2ccccc2)cc1 [FENBUFEN] | 0 | 70 | 0 | 66.2 | 
O=C(O)c1ccccc1Nc1cccc(C(F)(F)F)c1 [FLUFENAMIC ACID] | 48.6 | 95.8 | 68.6 | 91.2 | log Ks (Albumin [12]): 6.68; inhibition at 4 µM [13]: 24%; inhibition at 4 µM [14]: 73%
CCN(CC)CCN1C(=O)CN=C(c2ccccc2F)c2cc(Cl)ccc21 [FLURAZEPAM] | 0 | 4.3 | 6.3 | 2.7 | log Ks (Albumin [12]): 3.38
NS(=O)(=O)c1cc(C(=O)O)c(NCc2ccco2)cc1Cl [FUROSEMIDE] | 36.2 | 19.2 | 47.3 | 49 | 
COc1ccc(Cl)cc1C(=O)NCCc1ccc(S(=O)(=O)NC(=O)NC2CCCCC2)cc1 [GLYBURIDE] | 28.6 | 33.9 | 50.7 | 62.2 | solubility at 24 h (physchem): 11 µM (≈ 5.43 µg/mL)
Cc1cc(NC(=O)C2=C(O)c3ccccc3S(=O)(=O)N2C)no1 [ISOXICAM] | 51.7 | 33.1 | 38 | 32.6 | 
COc1ccc2cc([C@H](C)C(=O)O)ccc2c1 [NAPROXEN] | 24.7 | 91.3 | 38.8 | 79.9 | 
O=C1NC(=O)C(c2ccccc2)(c2ccccc2)N1 [PHENYTOIN] | 4 | 0 | 9.3 | 18.8 | 
CC(C)NCC(O)COc1cccc2[nH]ccc12 (stereo not given) [PINDOLOL] | 0 | 0.2 | 0 | 9.5 | log Ks (Albumin [12]): 2.65
CN1C(C(=O)Nc2ccccn2)=C(O)c2ccccc2S1(=O)=O [PIROXICAM] | 6.7 | 45.5 | 53.5 | 44.8 | 
O=C1C(CC[S+]([O-])c2ccccc2)C(=O)N(c2ccccc2)N1c1ccccc1 (stereo not given) [SULFINPYRAZONE] | 35.2 | 18.6 | 44.1 | 34.2 | 
CC/C(=C(\c1ccccc1)c1ccc(OCCN(C)C)cc1)c1ccccc1 [TAMOXIFEN] | 0 | 16.3 | 0 | 62.2 | 
CN1C(C(=O)Nc2ccccn2)=C(O)c2sccc2S1(=O)=O [TENOXICAM] | 52.3 | 27.4 | 61.7 | 38.5 | 
N[C@@H](Cc1c[nH]c2ccccc12)C(=O)O [TRYPTOPHAN] | 0 | 15.3 | 0 | 15.1 | 

Source: ChEMBL document CHEMBL1799913, “A combined spectroscopic and crystallographic approach to probing drug-human serum albumin interactions” (Bioorg Med Chem, 2010)
